The values that follow come from patent publication US5476782A, “DNA encoding a human 5-HT1E receptor and uses thereof” (Synaptic Pharmaceutical Corporation, priority 1995, dated 1995).

The Ki is a measure of affinity in units of concentration, obtained from inhibition or displacement. The IC50 is the midpoint of a concentration-inhibition curve. High values mean lower potency, low ones higher potency.

Where two headings read alike, the source gives them in different places. Bounds are passed on as bounds.

Assay [1] addresses T1, human 5-HT1E receptor (Homo sapiens, UniProt P28566). The assay is described as follows: [3H]5-HT displacement binding, membranes of Ltk- cells transfected with cloned 5-HT1E receptor. The arrangement: The entire coding region of clone hp75d was cloned into the eukaryotic expression vector pcEXV-3; expressed in transfected cells; host or cells: Ltk- mouse fibroblast cells (line 5-HT1E-7, ATCC CRL 10913, plasmid pcEXV-hp75d). The conditions noted are these: for affinity (in words): displacement of [3H]5-HT specific binding; for decrease of affinity relative to serotonin: substitution or removal of the 5-hydroxy group. (Loss of bound radioactivity is the signal in a displacement assay; it reports binding, not function.)
Protocol: Membranes were prepared from transfected Ltk^- cells which were grown to 100% confluency. The cells were washed twice with phosphate-buffered saline, scraped from the culture dishes into 5 ml of ice-cold phosphate-buffered saline, and centrifuged at 200×g for 5 min at 4° C. The pellet was resuspended in 2.5 ml of ice-cold Tris buffer (20 mM Tris -HCl, pH 7.4 at 23° C., 5 mM EDTA) and homogenized by a Wheaton tissue grinder. The lysate was subsequently centrifuged at 200×g for 5 min at 4° C. to pellet large fragments which were discarded. The supernatant was collected and centrifuged at 40,000× g for 20 min at 4° C. The pellet resulting from this centrifugation was washed once in ice-cold Tris buffer and finally resuspended in a final buffer containing 50 mM Tris-HCl and 0.5 mM EDTA, pH 7.4 at 23° C. Membrane preparations were kept on ice and utilized within two hours for the radioligand binding assays.
The binding profile of drugs in competition experiments was accomplished using 10-12 concentrations of compound. Incubation times were 30 min for both saturation and displacement studies based upon initial investigations which determined equilibrium binding conditions. […] Binding was initiated by the addition of 50 μl membrane homogenates (10-20 μg). The reaction was terminated by rapid filtration through presoaked (0.5% polyethyleneimine) filters using 48R Cell Brandel Harvester (Gaithersburg, Md.). Subsequently, filters were washed for 5 seconds with ice cold buffer (50 mM Tris HCL, pH 7.4 at 4° C.), dried and placed into vials containing 2.5 ml of Readi-Safe (Beckman, Fullerton, Calif.) and radioactivity was measured using a Beckman LS 5000TA liquid scintillation counter. […] Binding data was analyzed by computer-assisted nonlinear regression analysis (Accufit and Accucomp, Lundon Software, Chagrin Falls, Ohio). […] All experiments were performed in triplicate.

The test system of another assay is 5-HT1E binding site. The following applies: native site, human cortical tissue; cited from earlier work.
The target of assay [2] is T1, human 5-HT1E receptor. The conditions noted are these: forskolin-stimulated cAMP.
Protocol: Transfected Y1 cells (expression level=688 fmol/mg of protein) were incubated in DMEM, 5 mM theophylline, 10 mM Hepes (4-[2-Hydroxyethyl]-1-piperazineethanesulfonic acid), 10 μM pargyline, for 20 minutes at 37° C., 5% CO2. […] Subsequently, the cells were incubated for an additional 10 minutes at 37° C., 5% CO2. The media was aspirated and the reaction terminated by the addition of 100 mM HCl. The plates were stored at 4° C. for 15 minutes and centrifuged for 5 minutes (500×g at 4° C.) to pellet cellular debris. Aliquots of the supernatant fraction were then stored at -20° C. prior to assessment of cAMP formation by radioimmunoassay (cAMP Radioimmunoassay kit, Advanced Magnetics, Cambridge, Mass.).
In assay [3] the target is human 5-HT1E receptor. Nature of the assay: Inhibition of [3H]5-HT specific binding by Gpp(NH)p (G-protein coupling). The conditions noted are these: inhibition of specific binding of [3H]5-HT.
Where [4] appears, read: displacement of 4.5-5.5 nM [3H]5-HT, 37° C., 30 min, Table 1, read-out: Ki.

T1 sequence (P28566 whole entry): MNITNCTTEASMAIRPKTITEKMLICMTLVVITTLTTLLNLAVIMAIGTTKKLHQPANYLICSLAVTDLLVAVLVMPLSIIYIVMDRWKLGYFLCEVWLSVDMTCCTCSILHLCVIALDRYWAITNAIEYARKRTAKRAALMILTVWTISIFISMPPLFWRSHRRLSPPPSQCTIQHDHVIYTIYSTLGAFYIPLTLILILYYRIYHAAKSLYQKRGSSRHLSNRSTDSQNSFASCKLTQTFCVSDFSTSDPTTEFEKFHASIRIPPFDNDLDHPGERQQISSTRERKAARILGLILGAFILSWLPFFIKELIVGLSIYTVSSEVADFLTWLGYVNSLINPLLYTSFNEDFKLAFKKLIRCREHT

For `c1ccc2c(N3CCNCC3)cccc2c1` [1-Napthylpiperazine], the Ki on human 5-HT1E receptor [1] (setting [4]) amounted to 207 ± 69 nM; at human 5-HT1E receptor [1] (read-out: Ki values), 207 nM.

`Cc1[nH]c2ccc(O)cc2c1CCN` [2-Methyl-5-HT]: the Ki on human 5-HT1E receptor [1] (setting [4]) was found to be 817 ± 203 nM.

As for `NCCc1c[nH]c2ccc(C(N)=O)cc12` [5-CT, 5-carboxyamidotryptamine], in the assay with 5-HT1E binding site, the “affinity (in words)” value is given as “low affinity”. At human 5-HT1E receptor [1] (setting [4]), the Ki was 7880 ± 284 nM. Further, at human 5-HT1E receptor [1], the “affinity (in words)” value is reported as “low affinity” and the “decrease of affinity relative to serotonin” value was 300 fold.

Consider `NCCc1c[nH]c2ccc(O)cc12` [5-HT, 5-hydroxytryptamine], for which the “maximum inhibition of cAMP production” value on human 5-HT1E receptor [2] worked out at 32%. Further, the “affinity (in words)” value at human 5-HT1E receptor [1] is “highest affinity”.

As for `COc1ccc2[nH]cc(CCN)c2c1` [5-Methoxytryptamine], the Ki on human 5-HT1E receptor [1] (setting [4]) was 3150 ± 1040 nM. The “decrease of affinity relative to serotonin” value on human 5-HT1E receptor [1] stood at 300 fold.

Take `CCCN(CCC)C1CCc2cccc(O)c2C1` (centres unmarked) [8-OH-DPAT]: at human 5-HT1E receptor [1] (setting [4]), the Ki is 3330 ± 310 nM. On human 5-HT1E receptor [1], the “affinity (in words)” value is listed as “very poor affinity”.

Regarding `COc1cc(CC(C)N)c(OC)cc1I` (centres unmarked) [DOI], the Ki at human 5-HT1E receptor [1] (setting [4]) was 2970 ± 592 nM. In addition, the “affinity (in words)” value on human 5-HT1E receptor [1] is given as “very poor affinity”.

In the case of `CCCN(CCC)CCc1c[nH]c2ccc(C(N)=O)cc12` [DP-5-CT], the Ki on human 5-HT1E receptor [1] was above 10000 nM.

Consider `C[C@@H](CO)NC(=O)[C@@H]1C=C2c3cccc4[nH]cc(c34)C[C@H]2N(C)C1` [Ergonovine], for which, on human 5-HT1E receptor [1], the Ki amounted to 87.7 ± 7.6 nM.

Consider `CN1C[C@H](C(=O)N[C@]2(C)O[C@@]3(O)[C@@H]4CCCN4C(=O)[C@H](Cc4ccccc4)N3C2=O)C=C2c3cccc4[nH]cc(c34)C[C@H]21` [Ergotamine], for which, in the assay with 5-HT1E binding site, the “affinity (in words)” value is recorded as “low affinity”. Besides, on human 5-HT1E receptor [1] (setting [4]), the Ki was 599 ± 39 nM.

At human 5-HT1E receptor [3], `Nc1nc2c(ncn2[C@@H]2O[C@H](COP(=O)(O)OP(=O)(O)NP(=O)(O)O)[C@@H](O)[C@H]2O)c(=O)[nH]1` [Gpp(NH)p] showed an IC50 of 1880 ± 556 nM and an Imax of 26.4±5.6%.

For `O=C(c1ccc(F)cc1)C1CCN(CCn2c(=O)[nH]c3ccccc3c2=O)CC1` [Ketanserin], on human 5-HT1E receptor [1], the “affinity (in words)” value is listed as “very poor affinity”.

At human 5-HT1E receptor [1], `Nc1ccc(CCN2CCN(c3cccc(C(F)(F)F)c3)CC2)cc1` [LY-165163 (PAPP)] gave a Ki above 10000 nM.

Consider `CN1C[C@H](CO)C=C2c3cccc4[nH]cc(c34)C[C@H]21` [Lysergol], for which, at human 5-HT1E receptor [1] (setting [4]), the Ki amounted to 42.8 ± 5.3 nM.

Regarding `CSc1ccc2c(c1)C(N1CCN(C)CC1)Cc1ccccc1S2` (centres unmarked) [Methiothepin], the figures for the Ki on human 5-HT1E receptor [1] (setting [4]) and at human 5-HT1E receptor [1] (read-out: Ki values) were 194 ± 4 nM and 194 nM, respectively.

Turning to `CC[C@@H](CO)NC(=O)[C@@H]1C=C2c3cccc4[nH]cc(c34)C[C@H]2N(C)C1` [Methylergonovine], the Ki at human 5-HT1E receptor [1] (setting [4]) was found to be 89.4 ± 4.2 nM.

Take `CC[C@@H](CO)NC(=O)[C@@H]1C=C2c3cccc4c3c(cn4C)C[C@H]2N(C)C1` [Methysergide]: on human 5-HT1E receptor [1] (setting [4]), the Ki stood at 228 ± 16 nM.

With `Cc1cc(C(C)(C)C)c(O)c(C)c1CC1=NCCN1` [Oxymetazoline], the Ki at human 5-HT1E receptor [1] (setting [4]) is 419 ± 49 nM.

For `CC(C)NCC(O)COc1cccc2[nH]ccc12` (centres unmarked) [Pindolol], at human 5-HT1E receptor [1], the “affinity (in words)” value is “very poor affinity”.

As for `COC(=O)[C@H]1[C@H]2C[C@H]3c4[nH]c5ccccc5c4CCN3C[C@H]2CC[C@@H]1O` [Rauwolscine], at human 5-HT1E receptor [1], the affinity corresponds to a Ki of 3430 ± 102 nM.

`O=C(CCCN1CCC2(CC1)C(=O)NCN2c1ccccc1)c1ccc(F)cc1` [Spiperone]: the Ki at human 5-HT1E receptor [1] (setting [4]) amounted to 5050 ± 689 nM. In addition, the “affinity (in words)” value on human 5-HT1E receptor [1] is listed as “very poor affinity”.

As to `FC(F)(F)c1cccc(N2CCNCC2)c1` [TFMPP], at human 5-HT1E receptor [1] (setting [4]), the Ki stood at 6290 ± 259 nM.

Take `NCCc1c[nH]c2ccccc12` [Tryptamine]: the Ki on human 5-HT1E receptor [1] (setting [4]) was found to be 2560 ± 827 nM. Also, at human 5-HT1E receptor [1], the “decrease of affinity relative to serotonin” value is reported as 300 fold.

`COC(=O)[C@@H]1[C@H]2C[C@H]3c4[nH]c5ccccc5c4CCN3C[C@@H]2CC[C@@H]1O` [Yohimbine]: at human 5-HT1E receptor [1] (setting [4]), the Ki amounted to 1270 ± 233 nM.

Regarding `COc1cc(N)c(Cl)cc1C(=O)NC1CN2CCC1CC2` (centres unmarked) [Zacopride], at human 5-HT1E receptor [1], the “affinity (in words)” value was “very poor affinity”.
